Experimental data reported in the METLIN SMRT retention time set (Domingo-Almenara et al. 2019).

Assay: gradient 5% acetonitrile 3 min, to 50% in 2 min, to 85% in 15 min, held 3 min, 100 µL/min
Details: column: Zorbax Extend-C18 2.1 x 50 mm; eluents: water / acetonitrile, 0.1% formic acid
Outline: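 Values are retention times taken from adduct peaks that software picked and an analyst inspected. The pure standards were run as mixtures of ~100 molecules on HPLC linked to a quadrupole time-of-flight mass spectrometer, in positive and negative ionization mode. A Zorbax Extend-C18 column (2.1 × 50 mm, 1.8 μm) was used at 100 μL/min with water and acetonitrile, each including 0.1% formic acid.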

Row | RP-LC retention time | Structure (SMILES)
1 | 851 s | CCOC(=O)c1c(C)[nH]c(C(=O)N2CCC(C(C)C(=O)NCc3ccccc3C)CC2)c1C (configuration not stated)
2 | 618 s | Cc1ccc2[nH]c(=O)c(CCC(=O)NC(C)c3cn(C)nc3C)cc2c1 (configuration not stated)
3 | 814 s | CN1C(=O)c2cc(C(=O)NCCCc3ccccc3)nn2CC1(C)C(=O)NCc1ccccc1 (configuration not stated)
4 | 957 s | CCOC(=O)c1[nH]c(C)c(CN(Cc2ccco2)C(=O)Nc2ccccc2)c1C
5 | 1110 s | CCCNC(=O)Cc1c(C)nn(-c2nc(-c3ccc(Cl)cc3)cs2)c1C
6 | 854 s | O=C(Cn1cccc1-c1nnc(-c2ccccc2)o1)NCc1cccs1
7 | 710 s | COc1ccc(OCc2noc(CNS(=O)(=O)c3ccc(NC(C)=O)cc3)n2)cc1
8 | 722 s | CCNC(=O)N(C)Cc1ccc(C)s1
9 | 884 s | CN(Cc1ccccc1)C(=O)c1cc2c(=O)oc3ccccc3c2n1C
10 | 1160 s | CCc1ccc(S(=O)(=O)N2CCc3nc(-c4ccccc4)ncc3C2)cc1
11 | 849 s | Cn1c(=O)c(N2CCC(NC(=O)Nc3ccc(F)cc3)CC2)nc2ccccc21
12 | 1040 s | Cc1csc(-n2nc(C)c(CC(=O)Nc3cccc(Cl)c3)c2C)n1
13 | 854 s | COc1cccc(NC(=O)NC2CCN(c3ccc(C)c(C)c3)C2=O)c1 (configuration not stated)
14 | 819 s | Cc1cccc(C)c1NC(=O)Cn1c(=O)nc(N2CCC(C)CC2)c2ccccc21
15 | 839 s | O=C(Cc1cccs1)N1CCc2[nH]nc(-c3ccccc3)c2C1
16 | 946 s | CCCc1nc(-c2c(C)cc(C)nc2NC(=O)c2cc(C)ccc2C)no1
17 | 726 s | CCOC(=O)c1cc(-c2ccc(OC)c(S(=O)(=O)N3CCN(c4ccccn4)CC3)c2)on1
18 | 659 s | Cc1cc2[nH]c(C(=O)Nc3ccccc3Br)c(CN(C)C)c2s1
19 | 1010 s | COC(=O)CNC(=O)Cc1c(C)nn(-c2nc(-c3ccc(Cl)cc3)cs2)c1C
20 | 844 s | Cc1cccc(NC(=O)C2CCN(S(C)(=O)=O)c3ccccc3O2)c1C (configuration not stated)
21 | 966 s | Cc1nn(-c2ccccc2)c(C)c1S(=O)(=O)N1CCC(C(=O)NCc2ccc(Cl)cc2)CC1
22 | 623 s | O=C1CCC2(CNC(=O)NCCc3ccccc3)CCCC=C2N1 (configuration not stated)
23 | 650 s | O=C(NC1CCN(c2cc(-c3ccccc3)[nH]n2)C1)c1ccoc1 (configuration not stated)
24 | 1040 s | Cc1nn(-c2ccccc2)c(C)c1S(=O)(=O)N1CCC(C(=O)N2CCCc3ccccc32)CC1
25 | 1020 s | CCc1ccc(S(=O)(=O)N2CCC(C)(C(=O)NCc3ccccc3C)CC2)cc1
26 | 891 s | O=C(NCc1ccco1)N1c2ccccc2CC1c1nc(C2CC2)no1 (configuration not stated)
27 | 1160 s | CCOc1ccccc1-c1nc(Cc2nc(-c3ccc(OC)cc3)oc2C)no1

Further lines, the compound ahead of its results:

Row | Structure (SMILES) | RP-LC retention time
28 | CCOC(=O)C1CCN(C(=O)C2CCN(c3cncnc3N3CCCC3)CC2)CC1 | 629 s
29 | COc1ccc(/C=C/C(=O)Oc2cc(O)cc(O)c2)cc1 | 763 s
30 | CC(C)n1cnc(S(=O)(=O)N2CCCC(C(=O)Nc3cccc4c3CCCC4)C2)c1 (configuration not stated) | 865 s
31 | COCCN1C(=O)CCC2(CNC(=O)c3cnc(C)cn3)CCC=C12 (configuration not stated) | 676 s
32 | CC(=O)N1CCc2cc(N3CC(C(=O)NCC4CCCO4)CC3=O)ccc21 (configuration not stated) | 590 s
33 | N#Cc1ccsc1NC(=O)NC(c1ccccc1)c1ccccc1 | 947 s
34 | O=C(c1ccsc1)N1CCC2(CCC2N2CCOCC2)CC1 (configuration not stated) | 581 s
35 | O=c1c2nc(-c3ccccc3)cn2ccn1-c1cccc(Cl)c1 | 852 s
36 | CC(C)(C)NC(=O)N1[C@H]2CC[C@@H]1c1cnc(-c3ccccc3)nc1C2 | 865 s
37 | COCCn1c(SCc2nc(-c3ccccc3C)no2)nc2cc3c(cc2c1=O)OCO3 | 1120 s
38 | COc1ccc(CNC(=O)c2cn(C)c3ncccc23)cc1 | 711 s
39 | Cc1ccc(NC(=O)N2CCC(n3cnnc3C3CC3)C2)cc1 (configuration not stated) | 635 s
40 | CNC(=O)C1CCCN1C(=O)Nc1cccc(C)c1 (configuration not stated) | 635 s
41 | Cc1nnc(N2CCC(C(=O)NCCCN3CCCC3=O)CC2)c2nn(-c3ccccc3)c(C)c12 | 622 s
42 | COc1ccc(N2CC(c3noc(-c4cc(OC)c(OC)c(OC)c4)n3)CC2=O)cc1 (configuration not stated) | 787 s
43 | CN1C(=O)C2CCCCN2c2ccc(C(=O)N3CCN(c4cccc(Cl)c4)CC3)cc21 (configuration not stated) | 1060 s
44 | Cc1nc(-c2ccc(-c3noc(Cc4c[nH]c5ccccc45)n3)cc2)cs1 | 1090 s
45 | CCOc1ccc(-c2noc(CN3C(=O)COc4ccc(S(=O)(=O)CC)cc43)n2)cc1OC | 873 s
46 | CNC(=O)c1cc2cccc3c2n1CC(C)S3 (configuration not stated) | 853 s
47 | Cc1ccc(NC(=O)N2CCCC2C(=O)NC2CC2)cc1 (configuration not stated) | 668 s

Row | Structure (SMILES) | RP-LC retention time
48 | Cc1ccc(-c2noc(Cn3ccn(-c4cc(C)ccc4C)c(=O)c3=O)n2)cc1 | 950 s
49 | CC(C)NC(=O)N1CCCC(c2nc(C(C)C)no2)CCNC(=O)CC1 (configuration not stated) | 658 s
50 | Cc1ccc(C)c(-c2cc3c4nn(CC(=O)N(C)c5ccc(F)cc5)c(=O)n4ccn3n2)c1 | 1020 s
51 | N#Cc1ncc(Cl)c2ccccc12 | 1020 s
52 | C=CCNC(=O)Cc1nnc2cc(-c3nc(C4CC4)no3)ccn12 | 662 s
53 | Cc1noc(/C=C\c2ccc(S(=O)(=O)N3CCN(C)CC3)cc2)c1NC(=O)C1CC1 | 617 s
54 | Cc1ccc(-c2cc(C(=O)N3CCN(C)CC3)[nH]n2)cc1C | 603 s
55 | CCOc1ccc(CCNC(=O)C2CCCN(C(=O)c3cc4sccc4n3CC)C2)cc1OCC (configuration not stated) | 951 s
56 | CC(C)(C)c1noc(-c2ccc(=O)n(Cc3cccc(F)c3)n2)n1 | 1050 s
57 | Cc1cc(OCC(=O)N2CCC(C)CC2)nc(-c2ccc(Cl)cc2)n1 | 1150 s
58 | CC(C)OCCCNC(=O)CCC(=O)N1CC2CCCN2c2ccccc21 (configuration not stated) | 822 s
59 | COc1ccc2nc3oc(C(=O)NCCCN4CCCC(C)C4)cc3cc2c1 (configuration not stated) | 934 s
60 | Cc1ccc(CNC(=O)N2CCC(N3CCN(Cc4ccccc4)C(=O)C3=O)CC2)cc1 | 768 s
61 | COc1ccc(Br)cc1-c1nnc2n(C)c3c(=O)n(C)c(=O)n(C)c3n12 | 641 s
62 | COC(=O)c1c(C)[nH]c(C(=O)N2CCCC(C(=O)N3CCC(C)CC3)C2)c1C (configuration not stated) | 758 s
63 | CC(C)Oc1ccc(-c2noc(Cn3c(=O)n(-c4ccccc4)c(=O)c4sccc43)n2)cc1 | 1100 s
64 | Cc1cc(C)c(C(=O)N2CCC(CC(=O)NC3CCCCCC3)CC2)[nH]1 | 800 s
65 | O=C(CN1C(=O)CCCc2cc(S(=O)(=O)N3CCCCC3)ccc21)NC1CCCCC1 | 880 s
66 | CCn1c(=O)sc2cc(S(=O)(=O)N3CCC(C(=O)NC4CCC(C)CC4)CC3)ccc21 (configuration not stated) | 967 s
67 | CC(C)c1nnc(C2CN(C)CC23CCN(Cc2cccc(C(F)(F)F)c2)CC3)o1 (configuration not stated) | 578 s
